Article PMC5437240, “Computational and structural evidence for neurotransmitter-mediated modulation of the oligomeric states of human insulin in storage granules” (The Journal of Biological Chemistry, 2017)

Biological target: T1, porcine hexameric Zn2+-insulin (Sus scrofa, UniProt P01315)
T1 construct: gene INS; mature two-chain disulfide-linked insulin, cut from (pre)proinsulin; Zn2+ hexamer (two Zn per hexamer), T6 start state
Test: UV-visible 4H3N chromophore titration, Hill fit
Format: binding
Conditions: read-out: Kd ± S.D.
Text: UV-visible 4H3N chromophore titration, Hill fit on porcine hexameric Zn2+-insulin

T1 sequence (P01315 25-54): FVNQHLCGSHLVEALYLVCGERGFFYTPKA
T1 sequence (P01315 88-108): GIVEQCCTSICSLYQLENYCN

SMILES | Kd [µM]
Oc1ccccc1 [phenol] | 860 ± 130
NCCc1c[nH]c2ccc(O)cc12 [serotonin] | 3340 ± 520
